Data published in PMC4316997, “Complex Structure and Biochemical Characterization of the Staphylococcus aureus Cyclic Diadenylate Monophosphate (c-di-AMP)-binding Protein PstA, the Founding Member of a New Signal Transduction Protein Family” (The Journal of Biological Chemistry, 2014).

Columns and labels:
[1] = biological target: T1, PstA (PstASA, His-PstASA) (Staphylococcus aureus, UniProt A0A0H2XH20, N41A); assay: biochemical
T1 construct: gene SAUSA300_0460

[2] = biological target: T2, PstA (PstASA, His-PstASA) (Staphylococcus aureus, UniProt A0A0H2XH20, R67A); assay: biochemical
T2 construct: gene SAUSA300_0460

[3] = biological target: T3, PstA (PstASA, His-PstASA) (Staphylococcus aureus, UniProt A0A0H2XH20, K2A); assay: biochemical
T3 construct: gene SAUSA300_0460

[4] = biological target: T4, PstA (PstASA, His-PstASA) (Staphylococcus aureus, UniProt A0A0H2XH20); assay: DRaCALA, purified protein, […]-labelled ligand on nitrocellulose; format: binding
T4 construct: gene SAUSA300_0460; sites at monomer-monomer interfaces

[5] = biological target: T5, PstA (PstASA, His-PstASA) (Staphylococcus aureus, UniProt A0A0H2XH20, T43A); assay: biochemical
T5 construct: gene SAUSA300_0460

[6] = biological target: T6, PstA (PstASA, His-PstASA) (Staphylococcus aureus, UniProt A0A0H2XH20, D12A); assay: biochemical
T6 construct: gene SAUSA300_0460

[7] = biological target: N-terminally His-tagged PstA protein from S. aureus (His-PstASA) (S. aureus); assay: SEC-MALS; 100 uM purified His-PstASA in 50 mM Tris-HCl pH 7.5, 200 mM NaCl, 5% glycerol; Superdex 10/300 column coupled to a multiangle laser light scattering detector

| Compound | Kd [1] | Kd [2] | Kd [3] | Kd [4] | Kd [5] | Kd [6] | stoichiometry N [7] |
| --- | --- | --- | --- | --- | --- | --- | --- |
| Nc1ncnc2c1ncn2[C@@H]1O[C@@H]2COP(=O)(O)O[C@H]3[C@@H](O)[C@H](n4cnc5c(N)ncnc54)O[C@@H]3COP(=O)(O)O[C@H]2[C@H]1O [c-di-AMP] | 9600 ± 2300 nM | 480 ± 40 nM | 340 ± 40 nM | 370 ± 30 nM | 1800 ± 200 nM | 320 ± 50 nM | – |
| N-terminally His-tagged PstA protein from S. aureus (His-PstASA) (natural protein) | – | – | – | – | – | – | 3 |
